Measurements taken from patent US9567347B2, “Use of small molecule inhibitors targeting the interaction between RAC GTPase and p67(phox)” (CHILDREN'S HOSPITAL MEDICAL CENTER, priority 2012, dated 2017).
“Also recorded” adds a separate entry of the source.

Biological target: T1, reconstituted NOX2 (Homo sapiens, UniProt P19878)
T1 sequence (P19878 1-526): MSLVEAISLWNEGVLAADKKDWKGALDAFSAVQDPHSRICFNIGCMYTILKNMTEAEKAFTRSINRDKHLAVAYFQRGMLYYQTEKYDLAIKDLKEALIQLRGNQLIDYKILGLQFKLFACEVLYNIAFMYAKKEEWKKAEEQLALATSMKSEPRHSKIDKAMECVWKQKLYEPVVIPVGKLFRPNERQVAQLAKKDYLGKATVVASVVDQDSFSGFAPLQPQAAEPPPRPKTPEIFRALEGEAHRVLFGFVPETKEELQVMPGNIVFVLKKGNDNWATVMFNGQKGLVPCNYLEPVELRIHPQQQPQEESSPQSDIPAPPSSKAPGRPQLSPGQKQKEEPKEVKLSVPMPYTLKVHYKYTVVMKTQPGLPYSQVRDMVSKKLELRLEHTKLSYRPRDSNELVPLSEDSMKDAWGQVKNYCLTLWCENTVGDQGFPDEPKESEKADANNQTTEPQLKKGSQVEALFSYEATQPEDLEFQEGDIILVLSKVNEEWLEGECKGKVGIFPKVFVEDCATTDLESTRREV
Test: cell-free superoxide production assay
Format: biochemical
Conditions: reconstitution conditions, FIG. 7
Method: In order to complement the in silico and cellular results, Phox-I1 and Phox-I2 were tested in cell-free superoxide production assays. Phox-I2 was added to p67 phox (50 nM) in a total volume of 200 μl, and incubated for 30 min at room temperature. A mixture of solubilized macrophage membrane (5 nM cytochrome b 558 heme), p47 phox (50 nM), and Rac1 GMPPNP (nonprenylated) (50 nm), were added. Lithium dodecyl sulfate (LiDS) was added at 130 μM and incubated for 90 sec at room temperature. NADPH was then added (238 μM) and superoxide production measured. In this system, a turnover of 58.88 mol superoxide/sec/mol cytochrome b558 heme was measured. The results were calculated by taking superoxide production in the absence of Phox-I2 as 100% and values obtained with Phox-I2 were expressed as % inhibition. The mean data represent those from six separate experiments.

In the case of O=[N+]([O-])c1cccc(C2Nc3ccc([N+](=O)[O-])cc3C3C=CCC32)c1 (stereo not shown) [Phox-I2], the “Rac1-GMPPNP induced superoxide burst” value is reported as “dose-dependent inhibition; also recorded: dose-dependently inhibit”.
